# Several values for one entry are separate records, joined by “and”; a condition that tells them apart may be missing. Identical values can stand only once. Like-named read-outs stand apart in the source and are kept apart here.
# What was measured:
# [1] = tested on: P. aeruginosa AUMC-Pa-3; assay: microbe, parasite or virus in culture; settings: strain AUMC-Pa-3
# Outline: (§1)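 CLSI broth dilution; MHB; ~1 × 10^6 CFU/mL suspension mixed equal volume with drug; 37 °C for 18 h; visual read; triplicate. Broth sometimes supplemented with PG, PE, PC, CL, LPS, MgCl2, CaCl2 or PAβN.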
# [2] = tested on: P. aeruginosa AUMC-Pa-6; assay: microbe, parasite or virus in culture; settings: strain AUMC-Pa-6
# Outline: as §1
# [3] = tested on: P. aeruginosa AUMC-Pa-5; assay: microbe, parasite or virus in culture; settings: strain AUMC-Pa-5
# Outline: as §1
# [4] = tested on: P. aeruginosa AUMC-Pa-4; assay: microbe, parasite or virus in culture; settings: strain AUMC-Pa-4
# Outline: as §1
# [5] = tested on: P. aeruginosa PAO1; assay: microbe, parasite or virus in culture; settings: for MIC: Pseudomonas aeruginosa
# Outline: as §1
# [6] = tested on: clinical P. aeruginosa isolates; assay: microbe, parasite or virus in culture; settings: Pseudomonas aeruginosa, 18 h, antibiotic alone
# Outline: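 MIC is the lowest drug concentration showing no visible growth after 18 h at 37 °C. Two-fold dilutions in MHB were combined with an equal volume of bacterial suspension (about 1 × 10^6 CFU/mL), following CLSI broth microdilution, in triplicate.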
# [7] = tested on: P. aeruginosa HM-214; settings: strain HM-214; antibiotic + D-11 (MICb/MICbc 128/4)
# Outline: as §1
# [8] = tested on: P. aeruginosa PAK; assay: microbe, parasite or virus in culture; parameters: MICa: MIC of the antibiotic / MICac: MIC of the antibiotic in the combination: unit not given beside the values; settings: strain PAK
# Outline: as §1
# [9] = tested on: P. aeruginosa ATCC27853; assay: microbe, parasite or virus in culture; parameters: MICa: MIC of the antibiotic / MICac: MIC of the antibiotic in the combination: unit not given beside the values; settings: strain ATCC27853
# Outline: as §1
# [10] = tested on: P. aeruginosa NR-31040; assay: microbe, parasite or virus in culture; parameters: MICa: MIC of the antibiotic / MICac: MIC of the antibiotic in the combination: unit not given beside the values; settings: strain NR-31040
# Outline: as §1
# [11] = tested on: P. aeruginosa PA14; assay: microbe, parasite or virus in culture; parameters: MICa: MIC of the antibiotic / MICac: MIC of the antibiotic in the combination: unit not given beside the values; settings: strain PA14
# Outline: as §1
# [12] = tested on: P. aeruginosa NR-31041; assay: microbe, parasite or virus in culture; parameters: MICa: MIC of the antibiotic / MICac: MIC of the antibiotic in the combination: unit not given beside the values; settings: strain NR-31041
# Outline: as §1
# [13] = tested on: P. aeruginosa AUMC-Pa-2; settings: strain AUMC-Pa-2; antibiotic + D-11 (MICb/MICbc 64/4)
# Outline: as §1
# [14] = tested on: P. aeruginosa AUMC-Pa-1; settings: strain AUMC-Pa-1; antibiotic + D-11 (MICb/MICbc 128/4)
# Outline: as §1
# [15] = antibiotic + D-11 (MICb/MICbc 128/4)
# [16] = antibiotic alone, unit not given
# [17] = with D-11 at MICbc 4, unit not given
# [18] = antibiotic + D-11 (MICb/MICbc 64/4)
smiles,measurement,setting,value
CC[C@H]1OC(=O)[C@H](C)[C@@H](O[C@H]2C[C@@](C)(OC)[C@@H](O)[C@H](C)O2)[C@H](C)[C@@H](O[C@@H]2O[C@H](C)C[C@H](N(C)C)[C@H]2O)[C@](C)(O)C[C@@H](C)CN(C)[C@H](C)[C@@H](O)[C@]1(C)O [Azithromycin],FICI,[1]; [15],0.094
same,MICa: MIC of the antibiotic,[1]; [16],128
same,MICac: MIC of the antibiotic in the combination,[1]; [17],8
same,FICI,[2]; [18],0.313
same,MICa: MIC of the antibiotic,[2]; [16],128
same,MICac: MIC of the antibiotic in the combination,[2]; [17],32
same,FICI,[3]; [18],0.313
same,MICa: MIC of the antibiotic,[3]; [16],128
same,MICac: MIC of the antibiotic in the combination,[3]; [17],32
same,FICI,[4]; [15],0.281
same,MICa: MIC of the antibiotic,[4]; [16],128
same,MICac: MIC of the antibiotic in the combination,[4]; [17],32
same,MIC,"[5]; PAO1, read-out: MIC for azithromycin, azithromycin alone, PAO1",128 µM
same,MIC,"[5]; PAO1, read-out: MIC of AZM, initial bacterial density 10^3 CFU/mL",64 µM
same,MIC,"[5]; PAO1, read-out: MIC of AZM, initial bacterial density 10^4 CFU/mL",64 µM
same,MIC,"[5]; PAO1, read-out: MIC of AZM, initial bacterial density 10^5 CFU/mL",128 µM
same,MIC,"[5]; PAO1, read-out: MIC of AZM, initial bacterial density 10^6 CFU/mL",128 µM
same,MICa: the MIC of antibiotics,"[5]; S1 Table, macrolide alone, PAO1",128 µM
same,MICa: the MIC of azithromycin,"[5]; azithromycin alone, PAO1, broth microdilution in MHB, 18 h, 37 °C, triplicate",128/128 μM and 128 μM
same,MIC,"[6]; read-out: Antibiotic sensibility (MIC) of clinical P. aeruginosa isolate AUMC-Pa-1, strain AUMC-Pa-1",128 µM
same,MIC,"[6]; read-out: Antibiotic sensibility (MIC) of clinical P. aeruginosa isolate AUMC-Pa-2, strain AUMC-Pa-2",128 µM
same,MIC,"[6]; read-out: Antibiotic sensibility (MIC) of clinical P. aeruginosa isolate AUMC-Pa-3, strain AUMC-Pa-3",128 µM
same,MIC,"[6]; read-out: Antibiotic sensibility (MIC) of clinical P. aeruginosa isolate AUMC-Pa-4, strain AUMC-Pa-4",128 µM
same,MIC,"[6]; read-out: Antibiotic sensibility (MIC) of clinical P. aeruginosa isolate AUMC-Pa-5, strain AUMC-Pa-5",128 µM
same,MIC,"[6]; read-out: Antibiotic sensibility (MIC) of clinical P. aeruginosa isolate AUMC-Pa-6, strain AUMC-Pa-6",128 µM
same,MIC,"[6]; read-out: Antibiotic sensibility (MIC) of clinical P. aeruginosa isolate HM-214, strain HM-214",128 µM
same,MIC,"[6]; read-out: Antibiotic sensibility (MIC) of clinical P. aeruginosa isolate NR-31040, strain NR-31040",128 µM
same,MIC,"[6]; read-out: Antibiotic sensibility (MIC) of clinical P. aeruginosa isolate NR-31041, strain NR-31041",128 µM
same,FICI,[7],0.281
same,FICI,[8]; [18],0.188
same,MICa: MIC of the antibiotic,[8]; [16],128
same,MICac: MIC of the antibiotic in the combination,[8]; [17],16
same,FICI,[9]; antibiotic + D-11 (MICb/MICbc 32/4),0.156
same,MICa: MIC of the antibiotic,[9]; [16],128
same,MICac: MIC of the antibiotic in the combination,[9]; [17],4
same,FICI,[10]; [15],0.281
same,MICa: MIC of the antibiotic,[10]; [16],128
same,MICac: MIC of the antibiotic in the combination,[10]; [17],32
same,FICI,[11]; [15],0.281
same,MICa: MIC of the antibiotic,[11]; [16],128
same,MICac: MIC of the antibiotic in the combination,[11]; [17],32
same,FICI,[12]; [18],0.188
same,MICa: MIC of the antibiotic,[12]; [16],128
same,MICac: MIC of the antibiotic in the combination,[12]; [17],16
same,FICI,[13],0.313
same,FICI,[14],0.094

# Reference: article PMC8445441, “Elucidating the mechanism by which synthetic helper peptides sensitize Pseudomonas aeruginosa to multiple antibiotics” (PLoS Pathogens, 2021)
